Test results as given in the supplement of paper PMC9663587.

Columns and labels:
AZD7762 = compound: NC(=O)Nc1cc(-c2cccc(F)c2)sc1C(=O)N[C@H]1CCCNC1 [AZD7762]
Olaparib/AZD2281 = compound: O=C(c1cc(Cc2n[nH]c(=O)c3ccccc23)ccc1F)N1CCN(C(=O)C2CC2)CC1 [Olaparib/AZD2281]
THZ1 = compound: CN(C)C/C=C/C(=O)Nc1ccc(C(=O)Nc2cccc(Nc3ncc(Cl)c(-c4c[nH]c5ccccc45)n3)c2)cc1 [THZ1]
[1] = compound: CCC1=CN=CN=C1N2CCN(CC2)CC3=NC4=C(N3)C=C(C=C4)C(F)(F)F
Cabozantinib = compound: COc1cc2nccc(Oc3ccc(NC(=O)C4(C(=O)Nc5ccc(F)cc5)CC4)cc3)c2cc1OC [Cabozantinib]
R0-3306 = compound: C1=CC2=C(C=CC(=C2)C=C3C(=O)NC(=NCC4=CC=CS4)S3)N=C1 [R0-3306]
Rucaparib = compound: CNCc1ccc(-c2[nH]c3cc(F)cc4c3c2CCNC4=O)cc1 [Rucaparib]
Dasatinib = compound: Cc1nc(Nc2ncc(C(=O)Nc3c(C)cccc3Cl)s2)cc(N2CCN(CCO)CC2)n1 [Dasatinib]
AZD1775 = compound: C=CCn1c(=O)c2cnc(Nc3ccc(N4CCN(C)CC4)cc3)nc2n1-c1cccc(C(C)(C)O)n1 [AZD1775]
Buparlisib/NVP-BKM120 = compound: Nc1cc(C(F)(F)F)c(-c2cc(N3CCOCC3)nc(N3CCOCC3)n2)cn1 [Buparlisib/NVP-BKM120]
Doxorubicin = compound: COc1cccc2c1C(=O)c1c(O)c3c(c(O)c1C2=O)C[C@@](O)(C(=O)CO)C[C@@H]3O[C@H]1C[C@H](N)[C@H](O)[C@H](C)O1 [Doxorubicin]
[2] = compound: CNc1nc(-c2ccc3c(N)n[nH]c3c2)cc(N2C[C@@H](C(=O)NC3CCCCC3)CC[C@H]2C)n1
AZD6738 = compound: C[C@@H]1COCCN1c1cc(C2([S@](C)(=N)=O)CC2)nc(-c2cc[nH]c3nccc2-3)n1 [AZD6738]
[3] = compound: CO[C@@H](C)Cn1c(=O)n(C)c2cnc3ccc(-c4cncc(C(C)(C)O)c4)cc3c21
[4] = compound: Cc1nn(C)c(COc2ccc(N3CCN(S(=O)(=O)N(C)C)CC3)cc2)c1-c1cccc2c(CCCOc3cccc4ccccc34)c(C(=O)O)n(CCN3CCOCC3)c12
[5] = compound: CC(=O)Nc1cccc(-n2c(=O)n(C3CC3)c(=O)c3c(Nc4ccc(I)cc4F)n(C)c(=O)c(C)c32)c1
TGX221 = compound: CC1=CN2C(=O)C=C(N=C2C(=C1)C(C)NC3=CC=CC=C3)N4CCOCC4 [TGX221]
[6] = compound: CCCCOc1c(C(=O)c2c(F)cc(C)cc2F)c[nH]c2nncc1-2
Alpelisib/BYL719 = compound: Cc1nc(NC(=O)N2CCC[C@H]2C(N)=O)sc1-c1ccnc(C(C)(C)C(F)(F)F)c1 [Alpelisib/BYL719]
Flavopiridol = compound: CN1CC[C@H](c2c(O)cc(O)c3c(=O)cc(-c4ccccc4Cl)oc23)[C@H](O)C1 [Flavopiridol]
Luminespib/NVP-AUY922 = compound: CCNC(=O)c1noc(-c2cc(C(C)C)c(O)cc2O)c1-c1ccc(CN2CCOCC2)cc1 [Luminespib/NVP-AUY922]
[7] = compound: CC(=O)c1c(C)c2cnc(Nc3ccc(N4CCNCC4)cn3)nc2n(C2CCCC2)c1=O
[8] = compound: CCc1cnn2c(NCc3ccc[n+]([O-])c3)cc(N3CCCC[C@H]3CCO)nc12
BVD523 = compound: CC(C)Nc1cc(-c2c[nH]c(C(=O)N[C@H](CO)c3cccc(Cl)c3)c2)c(Cl)cn1 [BVD523]
Vorinostat = compound: O=C(CCCCCCC(=O)Nc1ccccc1)NO [Vorinostat]
BSJ-01-175 = compound: CN(C)C/C=C/C(=O)Nc1ccc(O[C@@H]2CCC[C@@H](Nc3ncc(Cl)c(-c4c[nH]c5ccccc45)n3)C2)cc1 [BSJ-01-175]
Saracatinib/AZD0530 = compound: CN1CCN(CCOc2cc(OC3CCOCC3)c3c(Nc4c(Cl)ccc5c4OCO5)ncnc3c2)CC1 [Saracatinib/AZD0530]
Ipatasertib/GDC0068 = compound: CC(C)NC[C@@H](C(=O)N1CCN(c2ncnc3c2[C@H](C)C[C@H]3O)CC1)c1ccc(Cl)cc1 [Ipatasertib/GDC0068]
Cediranib/AZD2171 = compound: COc1cc2c(Oc3ccc4[nH]c(C)cc4c3F)ncnc2cc1OCCCN1CCCC1 [Cediranib/AZD2171]
AZD2014 = compound: CNC(=O)c1cccc(-c2ccc3c(N4CCOC[C@@H]4C)nc(N4CCOC[C@@H]4C)nc3n2)c1 [AZD2014]
Torin2 = compound: C1=CC(=CC(=C1)N2C(=O)C=CC3=CN=C4C=CC(=CC4=C32)C5=CN=C(C=C5)N)C(F)(F)F [Torin2]
AZD5363 = compound: NC1(C(=O)N[C@@H](CCO)c2ccc(Cl)cc2)CCN(c2nc[nH]c3nccc2-3)CC1 [AZD5363]
THZ-P1-2 = compound: CN(C)C/C=C/C(=O)NC1=CC=C(C=C1)C(=O)NC2=CC=CC(=C2)NC3=NC=NC(=C3)C4=CNC5=CC=CC=C54 [THZ-P1-2]
SHP099 = compound: CC1(CCN(CC1)C2=CN=C(C(=N2)N)C3=C(C(=CC=C3)Cl)Cl)N [SHP099]
senexin b = compound: CN1CCN(C(=O)c2ccc3cc(CCNc4ncnc5ccc(C#N)cc45)ccc3c2)CC1 [senexin b]
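Further: breast cancer and non-malignant breast epithelial cell lines, Deep Dye Drop or Dye Drop imaging, nine half-log doses, GR normalized to time-zero plates and DMSO-only controls.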

Cell Line	GR50, 72 h (AZD7762)	GR50, 72 h (Olaparib/AZD2281)	GR50, 72 h (THZ1)	GR50, 72 h [1]	GR50, 72 h (Cabozantinib)	GR50, 72 h (R0-3306)	GR50, 72 h (Rucaparib)	GR50, 72 h (Dasatinib)	GR50, 72 h (AZD1775)	GR50, 72 h (Buparlisib/NVP-BKM120)	GR50, 72 h (Doxorubicin)	GR50, 72 h [2]	GR50, 72 h (AZD6738)	GR50, 72 h [3]	GR50, 72 h [4]	GR50, 72 h [5]	GR50, 72 h (TGX221)	GR50, 72 h [6]	GR50, 72 h (Alpelisib/BYL719)	GR50, 72 h (Flavopiridol)	GR50, 72 h (Luminespib/NVP-AUY922)	GR50, 72 h [7]	GR50, 72 h [8]	GR50, 72 h (BVD523)	GR50, 72 h (Vorinostat)	GR50, 72 h (BSJ-01-175)	GR50, 72 h (Saracatinib/AZD0530)	GR50, 72 h (Ipatasertib/GDC0068)	GR50, 72 h (Cediranib/AZD2171)	GR50, 72 h (AZD2014)	GR50, 72 h (Torin2)	GR50, 72 h (AZD5363)	GR50, 72 h (THZ-P1-2)	GR50, 72 h (SHP099)	GR50, 72 h (senexin b)
MDAMB330	0.0449 µM	9.31 µM	0.00836 µM	> 10 µM	> 10 µM	7.54 µM	8.69 µM	> 10 µM	0.0535 µM	0.511 µM	0.00368 µM	0.279 µM	8.42 µM	< 0.001 µM	> 10 µM	0.138 µM	> 10 µM	0.762 µM	1.2 µM	0.232 µM	0.00239 µM	0.0198 µM	0.0203 µM	7.45 µM	1.55 µM	0.00635 µM	1.2 µM	0.38 µM	4.86 µM	< 0.001 µM	0.00492 µM	0.198 µM	–	–	–
SUM185PE	0.0985 µM	> 10 µM	0.0143 µM	3.03 µM	1.71 µM	> 10 µM	> 10 µM	0.0196 µM	4.52 µM	0.659 µM	> 3.16 µM	> 10 µM	> 10 µM	0.00357 µM	> 10 µM	> 1 µM	> 10 µM	> 10 µM	0.318 µM	0.149 µM	0.00341 µM	> 3.16 µM	0.0261 µM	> 10 µM	6.86 µM	0.103 µM	1.65 µM	6.34 µM	0.0358 µM	0.00637 µM	0.0124 µM	8.7 µM	5.83 µM	> 10 µM	–
MDAMB453	0.0116 µM	1.67 µM	0.0116 µM	4.29 µM	9.71 µM	5.95 µM	6.58 µM	> 10 µM	0.112 µM	0.694 µM	0.00587 µM	2.12 µM	4.74 µM	< 0.001 µM	> 10 µM	0.0339 µM	> 10 µM	0.811 µM	0.538 µM	0.134 µM	0.0033 µM	0.0428 µM	0.0114 µM	7.79 µM	0.944 µM	0.00336 µM	8.37 µM	0.542 µM	2.79 µM	0.00364 µM	0.0086 µM	1.55 µM	–	> 10 µM	3.93 µM
HCC1187	0.0508 µM	3.46 µM	0.0149 µM	> 10 µM	–	–	> 10 µM	0.0343 µM	0.0228 µM	0.619 µM	0.00119 µM	> 10 µM	1.21 µM	1.12 µM	> 10 µM	> 1 µM	–	–	> 10 µM	0.237 µM	0.00363 µM	> 3.16 µM	0.00577 µM	> 10 µM	1.07 µM	0.00928 µM	0.258 µM	–	–	–	0.00305 µM	–	–	> 10 µM	> 10 µM
UACC893	0.299 µM	> 10 µM	0.0175 µM	6.76 µM	> 10 µM	9.24 µM	> 10 µM	> 10 µM	0.236 µM	0.271 µM	0.0106 µM	4.83 µM	9.33 µM	0.00107 µM	> 10 µM	0.0212 µM	> 10 µM	0.0897 µM	0.419 µM	0.117 µM	0.00468 µM	0.0209 µM	0.017 µM	0.868 µM	3.72 µM	0.0165 µM	4.54 µM	0.223 µM	6.59 µM	< 0.001 µM	0.00854 µM	0.0291 µM	–	> 10 µM	> 10 µM
MDAMB361	0.00768 µM	4.83 µM	0.00852 µM	7.23 µM	> 10 µM	5.8 µM	–	0.268 µM	0.00493 µM	0.218 µM	0.0123 µM	0.0407 µM	4.79 µM	< 0.001 µM	> 10 µM	> 1 µM	> 10 µM	–	0.223 µM	0.0887 µM	0.00714 µM	0.0196 µM	0.0118 µM	0.476 µM	0.762 µM	0.00163 µM	0.426 µM	0.314 µM	2.22 µM	< 0.001 µM	0.00507 µM	0.654 µM	–	> 10 µM	1.62 µM
HCC1500	0.0356 µM	6.33 µM	–	1.66 µM	4.67 µM	–	–	0.00348 µM	–	0.211 µM	0.0163 µM	–	–	–	> 10 µM	0.142 µM	> 10 µM	–	> 10 µM	–	0.00847 µM	> 3.16 µM	0.0138 µM	–	0.96 µM	–	0.259 µM	> 10 µM	3.86 µM	–	0.00186 µM	–	–	–	–
CAL851	0.0421 µM	5.05 µM	0.0085 µM	> 10 µM	5.34 µM	6.55 µM	–	0.105 µM	0.212 µM	0.343 µM	0.00552 µM	> 10 µM	4.62 µM	< 0.001 µM	> 10 µM	0.0132 µM	> 10 µM	0.00814 µM	3.64 µM	0.17 µM	0.00652 µM	> 3.16 µM	0.00469 µM	–	1.2 µM	0.0129 µM	0.871 µM	–	2.38 µM	0.00819 µM	0.00862 µM	> 10 µM	–	> 10 µM	> 10 µM
MDAMB157	0.0154 µM	5.39 µM	–	3.78 µM	2.78 µM	–	–	0.0605 µM	–	1.28 µM	0.00323 µM	–	–	–	> 10 µM	0.111 µM	> 10 µM	–	9.77 µM	–	0.00418 µM	> 3.16 µM	0.0177 µM	–	1.1 µM	–	5.23 µM	> 10 µM	0.825 µM	–	0.0344 µM	–	–	–	–
HCC1428	0.4 µM	0.553 µM	–	> 10 µM	> 10 µM	–	–	> 10 µM	–	0.692 µM	0.00474 µM	–	–	–	> 10 µM	> 1 µM	> 10 µM	–	> 10 µM	–	0.00286 µM	0.073 µM	0.0171 µM	–	0.835 µM	–	> 10 µM	> 10 µM	3.17 µM	–	0.0128 µM	–	–	–	–
